Entries after “also recorded” stand apart in the source; their conditions may differ.
Tested on: CD4^+CD25^+FOXP3^+ cells
Experiment: Ex vivo dendritic cell challenge and T cell co-culture with 12,13-DiHOME
Assay type: cell-based, human
Procedure: Ex vivo dendritic cell challenge and T cell co-culture. Fecal samples from five of ten NGM1 and seven of eight NGM3 neonates that had undergone metabolic profiling were used (biological replicates). Excluded samples from these groups had insufficient volume for analyses. Fecal samples were homogenized 1 g ml^−1 (w:v) in pre-warmed phosphate-buffered saline (PBS) containing 20% FBS (FBS). Samples were vortexed, incubated (37° C., 10 min) and centrifuged (14,000 rpm, 30 min). Supernatant was filter-sterilized through a 0.2-μm filter before being used in the dendritic cell (DC) T cell assay described below. PBS was used as the negative control. Treatment conditions used for the DiHOME experiment included: 75 μM, 130 μM and 200 μM 12,13 DiHOME (Cayman Chemical, Ann Arbor, Mich.) solubilized in 0.4%, 0.15% and 0.05% DMSO, respectively. DiHOME solutions were added to R10 media (Roswell Park Memorial Institute media 1640 with 10% heat-inactivated FBS (antigen activator) and 2 mM 1-glutamine and 100 U ml^−1 penicillin-streptomycin added; Life Technologies) and exposed to DCs within 1 h of preparation. Controls included PBS and DMSO (delivered in R10 media) at corresponding percentages used to dissolve the different concentrations of DiHOME.
Peripheral blood mononuclear cells (PBMCs) were purified from plasma obtained from healthy, de-identified human donors (Blood Centers of the Pacific, San Francisco, Calif.) through the cell-sourcing program that ensures donor confidentiality. Donors signed an agreement acknowledging that their blood may be used for research. PBMCs were isolated using Ficoll-Hypaque gradient centrifugation, washed twice with R10 media and incubated for 18 h. Dendritic cells (DCs) were isolated from PBMCs using the EasySep Human Pan-DC Pre-Enrichment Kit (STEMCELL Technologies, Vancouver, BC). DCs (0.5×10^6 cells ml^−1) from two donors (biological replication) were treated in triplicate (treatment replicate) with either cell-free fecal water ([…]) or varying concentrations of DiHOME, and cultured in R10 media supplemented with 10 ng ml^−1 GM-CSF and 20 ng ml^−1 IL-4 at 37° C.^27 for 2 d, for the fecal-water assay, or 5 d, for the DiHOME experiment. For the DiHOME experiment, freshly prepared media containing DiHOME or control exposures was replaced every 48 h. For the fecal-water experiment, the assay was repeated twice on one donor (technical replicates) and once on donor B owing to insufficient numbers of cells recovered from the latter donor. Treatment replicates were also considered biological replicates because the human donor cells are not clonal.
Twenty-four hours before co-culture with CD4^+ T cells, DC maturation was stimulated by using DC growth mediators (10 ng ml^−1 […] [(TNF-α), 10 ng ml^−1 IL-1b, 10 ng ml^−1 IL-6 and […] (PGE2)]. In preparation for co-culture, DCs were washed in fresh R10 media, counted via flow cytometry and plated in TexMACs Medium (Miltenyi Biotec, San Diego, Calif.) at 0.5×10^6 live CD45^+ cells per well.
Autologous T lymphocytes were purified from the PBMCs using a naïve CD4^+ T cell isolation kit (Miltenyi Biotec). After purification, naïve autologous CD4^+ T cells were suspended in the TexMACS Medium (Miltenyi Biotec) and added to the treated DCs at a ratio of 10:1 in the presence of soluble anti-CD28 and anti-CD49d ([…]). […] Cytokine secretion was evaluated by cytometric bead array, following the manufacturer's protocol (BD Biosciences). […]

With `CCCCCC(O)C(O)C/C=C\CCCCCCCC(=O)O` (centres unmarked) [12,13-DiHOME] the “proportion of CD4^+CD25^+FOXP3^+ cells” value (75 μM, compared to vehicle control (LME P=0.04)) was “significantly reduced”, the “proportion of CD4^+CD25^+FOXP3^+ cells” value (130 μM, compared to vehicle control (LME P<0.001)) was “significantly reduced” and the “effect size for the suppression of CD4^+CD25^+FOXP3^+” value (130 μM, preliminary assays) was “approximately seven”. The “proportion of CD4^+CD25^+FOXP3^+ cells” value (200 μM, compared to vehicle control (LME P=0.001)) was “significantly reduced” and the “proportion of CD4^+CD25^+FOXP3^+ cells” value (all concentrations examined, compared with vehicle treatment) was “recapitulated the effect of NGM3 fecal water; also recorded: reduced”.

Source: patent US10668118B2, “Microbial consortium and uses thereof” (The Regents of the University of California, priority 2016, dated 2020)
